Measurements: patent US10792282B2, “Protein kinase C inhibitors and uses thereof” (Rigel Pharmaceuticals, Inc., priority 2013, dated 2020)
Like-named read-outs stand apart in the source and are kept apart here.

Tests used:
[1] = test system: PLP induced experimental autoimmune encephalomyelitis (EAE); assay: PLP induced experimental autoimmune encephalomyelitis (EAE) model in SJL mice; type: in vivo; details: Mus musculus, both pretreatment and treatment dosing
Source text: EAE is a useful model for multiple sclerosis (MS), an autoimmune disease of the CNS that is caused by immune-cell infiltration of the CNS white matter. Inflammation and subsequent destruction of myelin cause progressive paralysis. Like the human disease, EAE is associated with peripheral activation of T cells autoreactive with myelin proteins, such as myelin basic protein (MBP), proteolipid protein (PLP), or myelin oligodendrocyte protein (MOG). Activated neuroantigen-specific T cells pass the blood-brain barrier, leading to focal mononuclear cell infiltration and demyelination. EAE can be induced in susceptible mouse strains by immunization with myelin-specific proteins in combination with adjuvant. In the SJL mouse model used in these studies, hind limb and tail paralysis is apparent by Day 10 after immunization, the peak of disease severity can be observed between Days 10 and 14, and a cycle of partial spontaneous remission followed by relapse can be observed up to Day 35.
In the SJL murine model of EAE, each mouse is sensitized with PLP/CFA. (150 μg PLP139-151 with 200 μg CFA in 0.05 ml of homogenate on four sites of hind flank for a total of 0.2 ml emulsion is used to induce EAE). […] In both protocols, clinical scores are monitored daily, and body weights are measured twice weekly. […]

[2] = test system: PKC mediated IL-2 production; assay: IL-2 ELISA, human primary T cell, anti CD3+CD28+ (whole cell functional assay); type: cell-based
Summary of the method: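 Anti-CD3/CD28-expanded human primary T cells (100,000/well), pre-incubated 1 h at 37° C with compound, then stimulated on plates coated with 1 μg/ml αCD3 and 5 μg/ml αCD28. Counter assay used 0.5 ng/ml PMA plus 0.1 μM ionomycin (final). Supernatant IL-2 measured by ELISA after 24 h.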

[3] = Homo sapiens, T-cell, 24 h, IL-2 production, human primary T cells stimulated with αCD3 and αCD28, 24 hours, IL-2 by ELISA, read-out: EC50
[4] = Homo sapiens, T-cell, human primary T cells stimulated with αCD3 and αCD28, IL-2 by ELISA, read-out: EC50 (blocked IL-2 production)
[5] = IL-2 production, human primary T cells stimulated with αCD3 and αCD28, 24 hours, IL-2 by ELISA, read-out: EC50

Row | Structure (SMILES) | EC50 [2, 3] [µM] | EC50 [2, 4] [µM] | EC50 [2, 5] [µM] | ED50 [1] [mg/kg]
1 | CC1(C)CC(Nc2nc(Nc3ccc(O[C@H]4CCOC4)c(C#N)c3)ncc2F)CC2CCCN21 (stereo partly drawn) [Compound 60, 2-((S)-tetrahydrofuran-3-yloxy)-5-(5-fluoro-4-(octahydro-5,5-dimethylindolizin-7-ylamino)pyrimidin-2-ylamino)benzonitrile] | < 0.5 | < 10 |  | 
2 | CC1(C)Oc2ccc(Nc3ncc(F)c(NC4CC5CCCN5C(C)(C)C4)n3)cc2-n2nnnc21 (stereo not shown) [Compound 3, N2-(4,4-dimethyl-4H-benzo[b]tetrazolo[1,5-d][1,4]oxazin-8-yl)-5-fluoro-N4-(octahydro-5,5-dimethylindolizin-7-amine)pyrimidine-2,4-diamine] |  |  | < 1 | 
3 | Cc1nnnn1-c1cc(Nc2ncc(F)c(NC3CC(C)(C)N4CCCC4C3C)n2)ccc1F (single isomer, unassigned) [Compound 70, 5-Fluoro-N2-(4-fluoro-3-(5-methyl-1H-tetrazol-1-yl)phenyl)-N4-(octahydro-5,5,8-trimethylindolizin-7-yl)pyrimidine-2,4-diamine] | < 10 | < 10 |  | 
4 | CC1(C)Oc2ccc(Nc3ncc(F)c(NC4CC5CCCN5C(C)(C)C4)n3)cc2-n2nnnc21 (stereo not shown) [Compound 1, N2-(4,4-dimethyl-4H-benzo[b]tetrazolo[1,5-d][1,4]oxazin-8-yl)-5-fluoro-N4-(octahydro-5,5-dimethylindolizin-7-amine)pyrimidine-2,4-diamine] |  |  | < 0.5 | 
5 | Cn1nnn(-c2cc(Nc3ncc(F)c(NC4CC(=O)N5C(CCC5(C)C)C4)n3)c(F)cc2C2CC2)c1=O (stereo not shown) [Compound 30] | > 10 | < 10 |  | 
6 | CC1(C)CC(Nc2nc(Nc3cc(-n4cnnn4)c(C4CC4)cc3F)ncc2F)CC2CCCN21 (racemic) [Compound 54, (±)-N2-(4-cyclopropyl-2-fluoro-5-(1H-tetrazol-1-yl)phenyl)-5-fluoro-n^4-(octahydro-5,5-dimethylindolizin-7-yl)pyrimidine-2,4-diamine] |  |  | < 0.1 | 
7 | CC1(C)CC(Nc2nc(Nc3ccc(O[C@H]4CCOC4)c(C#N)c3)ncc2F)CC2CCCN21 (single isomer, unassigned) [Compound 61] | < 1 | < 10 |  | 
8 | Cn1nnn(-c2cc(Nc3ncc(C#N)c(NC4CC5CCCN5C(C)(C)C4)n3)c(F)cc2C2CC2)c1=O (stereo not shown) [Compound 66, 4-((R/S,S/R)-Octahydro-5,5-dimethylindolizin-7-ylamino)-2-(4-cyclopropyl-2-fluoro-5-(4,5-dihydro-4-methyl-5-oxotetrazol-yl)phenylamino) pyrimidine-5-carbonitrile] |  |  | < 0.1 | 
9 | CC1(C)CC(Nc2nc(Nc3ccc(O[C@@H]4CCOC4)c(C#N)c3)ncc2F)CC2CCCN21 (stereo partly drawn) [Compound 57, 2-((R)-tetrahydrofuran-3-yloxy)-5-(5-fluoro-4-(octahydro-5,5-dimethylindolizin-7-ylamino)pyrimidin-2-ylamino)benzonitrile] | < 0.5 | < 10 |  | 

Further lines, with some results ahead:

Row | EC50 [2, 3] [µM] | EC50 [2, 4] [µM] | EC50 [2, 5] [µM] | Structure (SMILES) | ED50 [1] [mg/kg]
10 | < 0.1 | < 10 |  | Cn1nnn(-c2cc(Nc3ncc(F)c(N[C@@H]4C[C@@H]5CCCN5C(C)(C)C4)n3)c(F)cc2C2CC2)c1=O [Compound 17, 1-(5-(4-((7R,8aS)-octahydro-5,5-dimethylindolizin-7ylamino)-5-fluoropyrimidin-2-yl-amino)-2-cyclopropyl-4-fluorophenyl)-4-methyl-1H-tetrazol-5(4H)-one] | 30
11 | < 0.5 | < 10 |  | Cn1nnn(-c2cc(Nc3ncc(F)c(N[C@@H]4C[C@@H]5CCCN5C(C)(C)C4)n3)ccc2OC2CCOCC2)c1=O [Compound 52, 1-(5-(5-fluoro-4-(octahydro-5,5-dimethylindolizin-7-ylamino)pyrimidin-2-ylamino)-2-(tetrahydro-2H-pyran-4-yloxy)phenyl)-4-methyl-1H-tetrazol-5(4H)-one] | 
12 | < 0.1 | < 10 |  | C[C@H](O)COc1cc(F)c(Nc2ncc(C#N)c(N[C@@H]3C[C@@H]4CCCN4C(C)(C)C3)n2)cc1-n1nnn(C)c1=O [Compound 79, 4-((7R,8aS)-octahydro-5,5-dimethylindolizin-7-ylamino)-2-(4-((S)-2-hydroxypropoxy)-2-fluoro-5-(4,5-dihydro-4-methyl-5-oxotetrazol-1-yl)phenylamino)pyrimidine-5-carbonitrile] | 
13 | < 0.5 | < 10 |  | Cn1nnn(-c2cc(Nc3ncc(F)c(N[C@@H]4C[C@@H]5CCCN5C(C)(C)C4)n3)c(F)cc2OC2COC2)c1=O [Compound 88, 1-(5-(4-((7R,8aS)-octahydro-5,5-dimethylindolizin-7-ylamino)-5-fluoropyrimidin-2-ylamino)-4-fluoro-2-(oxetan-3-yloxy)phenyl)-4-methyl-1H-tetrazol-5(4H)-one] | 
14 | < 10 | < 10 |  | Cn1nnn(-c2cc(Nc3ncc(F)c(NC4CCN5CCCC5C4)n3)c(F)cc2C2CC2)c1=O (racemic) [Compound 27, (±)-1-(5-(5-fluoro-4-(octahydroindolizin-7-ylamino)pyrimidin-2-ylamino)-2-cyclopropyl-4-fluorophenyl)-4-methyl-1H-tetrazol-5(4H)one] | 
15 | < 0.5 | < 10 |  | COc1cc(F)c(Nc2ncc(F)c(N[C@@H]3C[C@@H]4CCCN4C(C)(C)C3)n2)cc1-n1nnn(C)c1=O [Compound 22, 1-(5-(4-((7R,8aS)-5,5-dimethyl-octahydroindolizin-7-ylamino)-5-fluoropyrimidin-2-ylamino)-4-fluoro-2-methoxyphenyl)-4-methyl-1H-tetrazol-5(4H)-one] | 
16 | < 0.1 | < 10 |  | CC(C)Oc1cc(F)c(Nc2ncc(F)c(N[C@@H]3C[C@@H]4CCCN4C(C)(C)C3)n2)cc1-n1nnn(C)c1=O [Compound 23, 1-(5-(4-((7R,8aS)-5,5-dimethyl-octahydroindolizin-7-ylamino)-5-fluoropyrimidin-2-ylamino)-4-fluoro-2-isopropoxyphenyl)-4-methyl-1H-tetrazol-5(4H)-one] | 
17 | < 0.1 | < 10 |  | Cn1nnn(-c2cc(Nc3ncc(C#N)c(N[C@@H]4CC5CCCN5C(C)(C)C4)n3)c(F)cc2C2CC2)c1=O (stereo partly shown) [Compound 76] | 
